In US8648092B2, “Imidazo[1,2-a]pyridine derivatives: preparation and pharmaceutical applications” (MEI Pharma, priority 2005, dated 2014):

Key:
[1] = molecular target: HDAC1 enzyme (recombinant GST-HDAC1) (Homo sapiens (Human), UniProt Q13547); assay: In vitro HDAC assay for determination of IC50 values (BIOMOL fluorescent-based HDAC activity assay); format: biochemical; conditions: Flur de lys substrate, 2 h room temperature, read-out: IC50 (HDAC 1)
How it was run: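 Recombinant human GST-HDAC1, baculovirus-expressed in SF9 cells and glutathione-purified, tested with a fluorogenic deacetylase substrate; Fluor de Lys developer added for 10 min. Fluorescence at 360 nm excitation/460 nm emission; IC50 fitted from a concentration series.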

[2] = system: Colo205 cells; assay: Cell-based proliferation assay for determination of GI50 values (CyQUANT); design: species or system human
How it was run: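 Colo205 cells in RPMI 1640 with 5% FBS, seeded 5000/well and grown 24 h at 37 °C. Exposure to compound lasted 96 h, with growth read by CyQUANT. GI50 = concentration giving 50% growth inhibition, from dose-response curves.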

[3] = Homo sapiens, COLO 205, 96 h treatment
[4] = Homo sapiens, COLO 205, 96 h, 96 h treatment

Sequence of HDAC1 enzyme (recombinant GST-HDAC1) (Q13547 whole entry): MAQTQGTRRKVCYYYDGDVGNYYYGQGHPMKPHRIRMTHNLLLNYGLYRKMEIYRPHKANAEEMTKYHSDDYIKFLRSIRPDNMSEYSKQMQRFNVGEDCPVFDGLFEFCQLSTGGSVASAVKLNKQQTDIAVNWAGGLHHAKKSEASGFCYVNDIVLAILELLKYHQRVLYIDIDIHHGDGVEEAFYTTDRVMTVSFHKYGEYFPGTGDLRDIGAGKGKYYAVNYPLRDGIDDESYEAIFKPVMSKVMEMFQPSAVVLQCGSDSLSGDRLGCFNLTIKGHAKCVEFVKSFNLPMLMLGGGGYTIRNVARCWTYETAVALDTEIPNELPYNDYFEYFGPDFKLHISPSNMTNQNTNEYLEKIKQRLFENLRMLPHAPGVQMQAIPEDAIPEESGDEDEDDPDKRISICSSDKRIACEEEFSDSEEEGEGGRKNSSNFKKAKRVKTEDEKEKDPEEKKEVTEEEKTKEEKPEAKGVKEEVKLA

| IC50 [1] [nM] | GI50 [2, 3] [nM] | GI50 [2, 4] [nM] | Compound | GI50 ([2]; 96 h treatment) [nM] |
| --- | --- | --- | --- | --- |
| 270 | 1800 |  | CCCN(CC)Cc1c(C(C)(C)C)nc2cc(/C=C/C(=O)NO)ccn12 [Compound 82, 3-{2-tert-Butyl-3-[(ethyl-propyl-amino)-methyl]-imidazo[1,2-a]pyridin-7-yl}-N hydroxy-acrylamide] |  |
| 40 |  | 230 | CCCCc1nc2cc(/C=C/C(=O)NO)ccn2c1CN(C)C [Compound 83, 3-(2-Butyl-3-dimethylaminomethyl-imidazo[1,2-a]pyridin-7-yl)-N-hydroxy-acrylamide] |  |
| 60 | 470 |  | CCNCc1c(C(C)(C)C)nc2cc(/C=C/C(=O)NO)ccn12 [Compound 84, 3-(2-tert-Butyl-3-ethylaminomethyl-imidazo[1,2-a]pyridin-7-yl)-N-hydroxy-acrylamide] |  |
| 60 | 680 |  | CCCCN(CC)Cc1c(C(C)(C)C)nc2cc(/C=C/C(=O)NO)ccn12 [Compound 85, 3-{2-tert-Butyl-3-[(butyl-ethyl-amino)-methyl]-imidazo[1,2-a]pyridin-7-yl}-N-hydroxy-acrylamide] |  |
| 570 | 3900 |  | CCN(Cc1c(C(C)(C)C)nc2cc(/C=C/C(=O)NO)ccn12)CC(C)C [Compound 86, 3-{2-tert-Butyl-3-[(ethyl-isobutyl-amino)-methyl]-imidazo[1,2-a]pyridin-7-yl}-N-hydroxy-acrylamide] |  |
| 130 | 750 |  | CCCCCN(CC)Cc1c(C(C)(C)C)nc2cc(/C=C/C(=O)NO)ccn12 [Compound 87, 3-{2-tert-Butyl-3-[(ethyl-pentyl-amino)-methyl]-imidazo[1,2-a]pyridin-7-yl}-N-hydroxy-acrylamide] |  |
| 60 |  | 350 | CCN(CCC(C)C)Cc1c(C(C)(C)C)nc2cc(/C=C/C(=O)NO)ccn12 [Compound 89, 3-(2-tert-Butyl-3-{[ethyl-(3-methyl-butyl)-amino]-methyl}-imidazo[1,2-a]pyridin-7-yl)-N-hydroxy-acrylamide] |  |
| 240 | 2000 |  | CCCCCCN(CC)Cc1c(C(C)(C)C)nc2cc(/C=C/C(=O)NO)ccn12 [Compound 90, 3-{2-tert-Butyl-3-[(ethyl-hexyl-amino)-methyl]-imidazo[1,2-a]pyridin-7-yl}-N-hydroxy-acrylamide] |  |
| 470 | 2100 |  | CCCC(C)CN(CC)Cc1c(C(C)(C)C)nc2cc(/C=C/C(=O)NO)ccn12 (stereo not shown) [Compound 91, 3-(2-tert-Butyl-3-{[ethyl-(2-methyl-pentyl)-amino]-methyl}-imidazo[1,2-a]pyridin-7-yl)-N-hydroxy-acrylamide] |  |
| 70 |  | 480 | CCN(CCC(C)(C)C)Cc1c(C(C)(C)C)nc2cc(/C=C/C(=O)NO)ccn12 [Compound 92, 3-(2-tert-Butyl-3-{[(3,3-dimethyl-butyl)-ethyl-amino]-methyl}-imidazo[1,2a]pyridin-7-yl)-N-hydroxy-acrylamide] |  |
| 190 | 970 |  | CCC(CC)CN(CC)Cc1c(C(C)(C)C)nc2cc(/C=C/C(=O)NO)ccn12 [Compound 93, 3-(2-tert-Butyl-3-{[ethyl-(2-ethyl-butyl)-amino]-methyl}-imidazo[1,2-a]pyridin-7-yl)-N-hydroxy-acrylamide] |  |
| 90 | 600 |  | CCN(CCCSC)Cc1c(C(C)(C)C)nc2cc(/C=C/C(=O)NO)ccn12 [Compound 95, 3-(2-tert-Butyl-3-{[ethyl-(3-methylsulfanyl-propyl)-amino]-methyl}-imidazo[1,2-a]pyridin-7-yl)-N-hydroxy-acrylamide] |  |
| 370 | 3400 |  | CCN(Cc1c(C(C)(C)C)nc2cc(/C=C/C(=O)NO)ccn12)CC1CCOC1 (stereo not shown) [Compound 96, 3-(2-tert-Butyl-3-{[ethyl-(tetrahydro-furan-3-ylmethyl)-amino]-methyl}-imidazo[1,2-a]pyridin-7-yl)-N-hydroxy-acrylamide] |  |
| 330 | 2100 |  | CCN(Cc1c(C(C)(C)C)nc2cc(/C=C/C(=O)NO)ccn12)CC1CC1 [Compound 97, 3-{2-tert-Butyl-3-[(cyclopropylmethyl-ethyl-amino)-methyl]-imidazo[1,2-a]pyridin-7-yl}-N-hydroxy-acrylamide] |  |
| 190 |  | 1100 | CCN(Cc1c(C(C)(C)C)nc2cc(/C=C/C(=O)NO)ccn12)CC1CCCCC1 [Compound 98, 3-{2-tert-Butyl-3-[(cyclohexylmethyl-ethyl-amino)-methyl]-imidazo[1,2-a]pyridin-7-yl}-N-hydroxy-acrylamide] |  |
| 30 | 180 |  | CCCCN(CC)Cc1c(C)nc2cc(/C=C/C(=O)NO)ccn12 [Compound 99, 3-{3-[(Butyl-ethyl-amino)-methyl]-2-methyl-imidazo[1,2-a]pyridin-7-yl}-N-hydroxy-acrylamide] |  |
| 540 |  | 4600 | CCCN(CC)Cc1c(C)nc2cc(/C=C/C(=O)NO)ccn12 [Compound 100, 3-{3-[(Ethyl-propyl-amino)-methyl]-2-methyl-imidazo[1,2-a]pyridin-7-yl}-N-hydroxy-acrylamide] |  |
| 10 | 50 |  | CCC(CC)CN(CC)Cc1c(C)nc2cc(/C=C/C(=O)NO)ccn12 [Compound 101, 3-(3-{[Ethyl-(2-ethyl-butyl)-amino]-methyl}-2-methyl-imidazo[1,2-a]pyridin-7-yl)-N-hydroxy-acrylamide] |  |
| 300 | 2500 |  | CCCN(Cc1c(C(C)(C)C)nc2cc(/C=C/C(=O)NO)ccn12)C(C)C [Compound 102, 3-{2-tert-Butyl-3-[(isopropyl-propyl-amino)-methyl]-imidazo[1,2-a]pyridin-7-yl}-N-hydroxy-acrylamide] |  |
| > 10000 | 41000 |  | CCN(CC)Cc1c(-c2ccccc2)nc2ccc(/C=C/C(=O)NO)cn12 [Compound 103, 3-(3-Diethylaminomethyl-2-phenyl-imidazo[1,2a]pyridin-6-yl)-N-hydroxy-acrylamide] |  |
| 780 | 6300 |  | CN(Cc1c(C(C)(C)C)nc2cc(C=CC(=O)NO)ccn12)CC(C)(C)C [Compound 104, 3-(2-tert-Butyl-3-{[(2,2-dimethyl-propyl)-methyl-amino]-methyl}-imidazo[1,2-a]pyridin-7-yl)-N-hydroxy-acrylamide] |  |
| 7400 | 44000 |  | CCN(Cc1c(-c2ccccc2)nc2cc(/C=C/C(=O)NO)ccn12)CC(F)(F)F [Compound 105, 3-(3-{[Ethyl-(2,2,2-trifluoro-ethyl)-amino]-methyl}-2-phenyl-imidazo [1,2-a]pyridin-7-yl)-N-hydroxy-acrylamide] |  |
| 220 | 1700 |  | CCCCN(C)Cc1c(C(C)(C)C)nc2cc(/C=C/C(=O)NO)ccn12 [Compound 106, 3-{2-tert-Butyl-3-[(butyl-methyl-amino)-methyl]-imidazo[1,2-a]pyridin-7-yl}-N-hydroxy-acrylamide] |  |
| 410 | 2300 |  | CCC(CC)CN(C)Cc1c(C(C)(C)C)nc2cc(/C=C/C(=O)NO)ccn12 [Compound 107, 3-(2-tert-Butyl-3-{[(2-ethyl-butyl)-methyl-amino]-methyl}-imidazo[1,2-a]pyridin-7-yl)-N-hydroxy-acrylamide] |  |
| 350 | 900 |  | CC(C)CCN(C)Cc1c(C(C)(C)C)nc2cc(/C=C/C(=O)NO)ccn12 [Compound 108, 3-(2-tert-Butyl-3-{[methyl-(3-methyl-butyl)-amino]-methyl}-imidazo[1,2-a]pyridin-7-yl)-N-hydroxy-acrylamide] |  |
| 270 | 730 |  | CN(CCC(C)(C)C)Cc1c(C(C)(C)C)nc2cc(/C=C/C(=O)NO)ccn12 [Compound 109, 3-(2-tert-Butyl-3-{[(3,3-dimethyl-butyl)-methyl-amino]-methyl}-imidazo[1,2-a]pyridin-7-yl)-N-hydroxy-acrylamide] |  |
| 90 | 570 |  | CCCCc1nc2cc(/C=C/C(=O)NO)ccn2c1CN(CC)CC(C)C [Compound 112, 3-{2-Butyl-3-[(ethyl-isobutyl-amino)-methyl]-imidazo[1,2-a]pyridin-7-yl}-N-hydroxy-acrylamide] |  |
| 20 | 90 |  | CCCCc1nc2cc(/C=C/C(=O)NO)ccn2c1CN(CC)CCC(C)C [Compound 114, 3-(2-Butyl-3-{[ethyl-(3-methyl-butyl)-amino]-methyl}-imidazo[1,2-a]pyridin-7-yl)-N-hydroxy-acrylamide] |  |
| 160 | 950 |  | CCCCc1nc2cc(/C=C/C(=O)NO)ccn2c1CN(CC)CC(C)(C)C [Compound 115, 3-(2-Butyl-3-{[(2,2-dimethyl-propyl)-ethyl-amino]-methyl}-imidazo[1,2-a]pyridin-7-yl)-N-hydroxy-acrylamide] |  |
| 80 |  |  | CCCCc1nc2cc(/C=C/C(=O)NO)ccn2c1CN(CC)CC(C)CCC (stereo not shown) [Compound 116, 3-(2-Butyl-3-{[ethyl-(2-methyl-pentyl)-amino]-methyl}-imidazo[1,2-a]pyridin-7-yl)-N-hydroxy-acrylamide] | 490 |

| Compound | IC50 [1] [nM] | GI50 [2, 3] [nM] | GI50 [2, 4] [nM] | GI50 ([2]; 96 h treatment) [nM] |
| --- | --- | --- | --- | --- |
| CCCN(Cc1c(C)nc2cc(C=CC(=O)NO)ccn12)CC(C)(C)C [Compound 110, 3-(3-{[(2,2-Dimethyl-propyl)-propyl-amino]-methyl}-2-methyl-imidazo[1,2a]pyridin-7-yl)-N-hydroxy-acrylamide] | 130 |  |  | 700 |
| CCN(Cc1c(C)nc2cc(C=CC(=O)NO)ccn12)CC(C)(C)C [Compound 111, 3-(3-{[(2,2-Dimethyl-propyl)-ethyl-amino]-methyl}-2-methyl-imidazo[1,2a]pyridin-7-yl)-N-hydroxy-acrylamide] | 50 |  |  | 600 |
